According to ChEMBL document CHEMBL2146473 (Bioorg Med Chem, 2012):
Calls of active or inactive are those of the source. The calls are words filed in the database; no cut-off is given here.

Columns and labels:
[1] = species: Rattus norvegicus; assay: animal or person; type: functional; settings: Wistar, Plasma, po, 9 h
[2] = species: Rattus norvegicus; assay: animal or person; type: functional; settings: Wistar, Plasma, po, 0.5 h
[3] = biological target: Dipeptidyl peptidase 4 (Rattus norvegicus, UniProt P14740); type: cell-free, Plasma
Description: Inhibition of DPP4 in rat plasma using GLY-Pro-MCA as substrate after 60 mins by fluorescence assay

[4] = Tmax in rat at 0.1 mg/kg, po; type: ADME, organism-based; design: dose 0.1 mg/kg, route oral; settings: in vivo
[5] = Terminal half life in monkey at 0.3 mg/kg, po; type: ADME, organism-based, Macaca mulatta; design: dose 0.3 mg/kg, route oral; settings: rhesus monkey, in vivo, read-out: beta t1/2 (converted)
[6] = AUC (0 to infinity) in rat at 1 mg/kg, po; type: ADME, organism-based; design: time infinity, dose 1 mg/kg, route oral; settings: plasma
[7] = AUC (0 to infinity) in monkey at 0.1 mg/kg, po; type: ADME, organism-based, Macaca mulatta; design: time infinity, dose 0.1 mg/kg, route oral; settings: rhesus monkey, plasma
[8] = Cmax in monkey at 0.1 mg/kg, po; type: ADME, organism-based, Macaca mulatta; design: dose 0.1 mg/kg, route oral; settings: rhesus monkey, in vivo
[9] = Oral bioavailability in monkey at 0.1 mg/kg; type: ADME, organism-based, Macaca mulatta; settings: rhesus monkey, in vivo
[10] = Oral bioavailability in monkey at 1 mg/kg; type: ADME, organism-based, Macaca mulatta; settings: rhesus monkey, in vivo
[11] = Terminal half life in rat at 0.3 mg/kg, po; type: ADME, organism-based; design: dose 0.3 mg/kg, route oral; settings: in vivo, read-out: beta t1/2 (converted)
[12] = Terminal half life in monkey at 0.1 mg/kg, po; type: ADME, organism-based, Macaca mulatta; design: dose 0.1 mg/kg, route oral; settings: rhesus monkey, in vivo, read-out: beta t1/2 (converted)
[13] = Cmax in rat at 1 mg/kg, po; type: ADME, organism-based; design: dose 1 mg/kg, route oral; settings: in vivo
[14] = AUC (0 to infinity) in rat at 0.3 mg/kg, po; type: ADME, organism-based; design: time infinity, dose 0.3 mg/kg, route oral; settings: plasma
[15] = Terminal half life in rat at 0.1 mg/kg, po; type: ADME, organism-based; design: dose 0.1 mg/kg, route oral; settings: in vivo, read-out: beta t1/2 (converted)
[16] = Oral bioavailability in rat at 1 mg/kg; type: ADME, organism-based; settings: in vivo
[17] = AUC (0 to infinity) in monkey at 0.3 mg/kg, po; type: ADME, organism-based, Macaca mulatta; design: time infinity, dose 0.3 mg/kg, route oral; settings: rhesus monkey, plasma
[18] = Cmax in monkey at 1 mg/kg, po; type: ADME, organism-based, Macaca mulatta; design: dose 1 mg/kg, route oral; settings: rhesus monkey, in vivo
[19] = Oral bioavailability in rat at 0.1 mg/kg; type: ADME, organism-based; settings: in vivo
[20] = Oral bioavailability in rat at 0.3 mg/kg; type: ADME, organism-based; settings: in vivo
[21] = Oral bioavailability in monkey at 0.3 mg/kg; type: ADME, organism-based, Macaca mulatta; settings: rhesus monkey, in vivo
[22] = Tmax in monkey at 1 mg/kg, po; type: ADME, organism-based, Macaca mulatta; design: dose 1 mg/kg, route oral; settings: rhesus monkey, in vivo
[23] = Tmax in rat at 1 mg/kg, po; type: ADME, organism-based; design: dose 1 mg/kg, route oral; settings: in vivo
[24] = AUC (0 to infinity) in monkey at 1 mg/kg, po; type: ADME, organism-based, Macaca mulatta; design: time infinity, dose 1 mg/kg, route oral; settings: rhesus monkey, plasma
[25] = Tmax in rat at 0.3 mg/kg, po; type: ADME, organism-based; design: dose 0.3 mg/kg, route oral; settings: in vivo
[26] = Cmax in rat at 0.1 mg/kg, po; type: ADME, organism-based; design: dose 0.1 mg/kg, route oral; settings: in vivo
[27] = Terminal half life in monkey at 1 mg/kg, po; type: ADME, organism-based, Macaca mulatta; design: dose 1 mg/kg, route oral; settings: rhesus monkey, in vivo, read-out: beta t1/2 (converted)
[28] = AUC (0 to infinity) in rat at 0.1 mg/kg, po; type: ADME, organism-based; design: dose 0.1 mg/kg, route oral, time infinity; settings: plasma
[29] = Terminal half life in rat at 1 mg/kg, po; type: ADME, organism-based; design: dose 1 mg/kg, route oral; settings: in vivo, read-out: beta t1/2 (converted)
[30] = Cmax in monkey at 0.3 mg/kg, po; type: ADME, organism-based, Macaca mulatta; design: dose 0.3 mg/kg, route oral; settings: rhesus monkey, in vivo
[31] = Cmax in rat at 0.3 mg/kg, po; type: ADME, organism-based; design: dose 0.3 mg/kg, route oral; settings: in vivo
[32] = Tmax in monkey at 0.1 mg/kg, po; type: ADME, organism-based, Macaca mulatta; design: dose 0.1 mg/kg, route oral; settings: rhesus monkey, in vivo
[33] = Tmax in monkey at 0.3 mg/kg, po; type: ADME, organism-based, Macaca mulatta; design: dose 0.3 mg/kg, route oral; settings: rhesus monkey, in vivo
[34] = system: Rattus norvegicus; assay: Sustained inhibition of DPP4 in Wistar rat plasma using GLY-Pro-MCA as substrate at 1 mg/kg, po measured up to 24 hrs by fluorescence assay; type: functional, organism-based; design: dose 1 mg/kg
[35] = system: Rattus norvegicus; assay: Antidiabetic activity in Zucker fatty rat assessed as decrease in AUC (0 to 60 mins) of plasma glucose level at 0.03 to 1 mg/kg, po administered 30 mins prior to glucose challenge by oral glucose tolerance test; type: functional, organism-based
[36] = system: Rattus norvegicus; assay: Antidiabetic activity in Zucker fatty rat assessed as normalization of glucose excursion at 0.03 mg/kg, po administered 30 mins prior to glucose challenge by oral glucose tolerance test relative to lean-control; type: functional, organism-based; design: dose 0.03 mg/kg
[37] = system: Rattus norvegicus; assay: Antidiabetic activity in Zucker fatty rat assessed as decrease in plasma glucose excursion at 0.03 to 1 mg/kg, po administered 30 mins prior to glucose challenge by oral glucose tolerance test; type: functional, organism-based
[38] = system: Rattus norvegicus; assay: Inhibition of DPP4 in po dosed Wistar rat plasma using GLY-Pro-MCA as substrate after 48 hrs by fluorescence assay; type: functional, organism-based

Sequence of Dipeptidyl peptidase 4 (P14740 whole entry): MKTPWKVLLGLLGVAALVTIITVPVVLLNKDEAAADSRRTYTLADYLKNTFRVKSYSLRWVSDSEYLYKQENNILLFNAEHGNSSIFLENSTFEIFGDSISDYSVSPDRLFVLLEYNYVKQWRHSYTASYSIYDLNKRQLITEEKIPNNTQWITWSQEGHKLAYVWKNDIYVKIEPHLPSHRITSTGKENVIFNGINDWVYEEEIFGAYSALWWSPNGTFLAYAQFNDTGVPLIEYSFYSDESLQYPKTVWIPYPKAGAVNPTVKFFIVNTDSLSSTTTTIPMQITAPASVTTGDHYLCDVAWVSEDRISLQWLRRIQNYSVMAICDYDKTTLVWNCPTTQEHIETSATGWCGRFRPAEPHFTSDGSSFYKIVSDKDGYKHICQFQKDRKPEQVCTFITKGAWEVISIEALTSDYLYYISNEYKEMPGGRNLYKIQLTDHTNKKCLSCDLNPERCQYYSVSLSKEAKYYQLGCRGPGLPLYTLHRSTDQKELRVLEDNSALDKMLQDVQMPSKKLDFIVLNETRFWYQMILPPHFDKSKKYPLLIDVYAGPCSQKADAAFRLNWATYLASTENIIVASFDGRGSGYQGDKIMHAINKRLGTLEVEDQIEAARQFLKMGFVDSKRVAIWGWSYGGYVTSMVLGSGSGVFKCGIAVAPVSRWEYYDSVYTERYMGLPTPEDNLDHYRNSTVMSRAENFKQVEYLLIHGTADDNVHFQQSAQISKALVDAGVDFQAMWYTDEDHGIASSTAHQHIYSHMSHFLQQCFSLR

Work on `O=C([C@@H]1C[C@H](N2CCN(c3nnnn3C3CCCCC3)CC2)CN1)N1CCSC1` yielded an inhibition in vivo at 3 µmol/kg [1] of 10.5%, an inhibition in vivo at 3 µmol/kg [2] of 25.6% and an IC50 [3] of 3.1 nM.
With `Cc1cc(N2CCN([C@@H]3CN[C@H](C(=O)N4CCSC4)C3)CC2)n(-c2ccc(C#N)cc2)n1` the IC50 [3] was 13 nM.
With `O=C([C@@H]1C[C@H](N2CCN(c3nnnn3-c3ccccc3)CC2)CN1)N1CCSC1` the inhibition in vivo at 3 µmol/kg [1] was 70.7%, the inhibition in vivo at 3 µmol/kg [2] was 85.1% and the IC50 [3] was 0.18 nM.
For `Cc1cc(N2CCN([C@@H]3CN[C@H](C(=O)N4CCSC4)C3)CC2)n(-c2cccc(F)c2)n1`, the inhibition in vivo at 3 µmol/kg [1] was 75.1%, the inhibition in vivo at 3 µmol/kg [2] was 96.1% and the IC50 [3] was 0.49 nM.
For `O=C([C@@H]1C[C@H](N2CCN(c3cc(C(F)(F)F)nn3-c3ccccc3)CC2)CN1)N1CCSC1`, the inhibition in vivo at 3 µmol/kg [1] was 81.8% and the inhibition in vivo at 3 µmol/kg [2] was 87.4%.
Molecule `O=C([C@@H]1C[C@H](N2CCN(c3nccn3-c3ccccc3)CC2)CN1)N1CCSC1` has an inhibition in vivo at 3 µmol/kg [1] of 58%, an inhibition in vivo at 3 µmol/kg [2] of 59.3% and an IC50 [3] of 0.19 nM.
Molecule `O=C([C@@H]1C[C@H](N2CCC(c3cc(C(F)(F)F)nn3-c3ccccc3)CC2)CN1)N1CCSC1` has an IC50 [3] of 2.5 nM.
`Br.Cc1cc(N2CCN([C@@H]3CN[C@H](C(=O)N4CCSC4)C3)CC2)n(-c2ccccc2)n1` gave a Tmax [4] of 0.88 h, a half-life [5] of 15.2 h and an AUC(0-inf) [6] of 673 ng·h/mL. It also gave an AUC(0-inf) [7] of 295 ng·h/mL, a Cmax [8] of 28.3 ng/mL and a bioavailability [9] of 83.2%. The bioavailability [10] was 44.1%, the half-life [11] was 8.97 h and the half-life [12] was 18.9 h. It also gave a Cmax [13] of 152 ng/mL, an AUC(0-inf) [14] of 202 ng·h/mL and a half-life [15] of 15.8 h. The bioavailability [16] was 62.9%, the AUC(0-inf) [17] was 613 ng·h/mL and the Cmax [18] was 274 ng/mL. The bioavailability [19] was 85.9%, the bioavailability [20] was 63% and the bioavailability [21] was 57.6%. The Tmax [22] was 0.88 h, the Tmax [23] was 0.75 h and the AUC(0-inf) [24] was 1570 ng·h/mL. It also gave a Tmax [25] of 0.75 h, a Cmax [26] of 5.48 ng/mL and a half-life [27] of 16.1 h. The AUC(0-inf) [28] was 91.8 ng·h/mL, the half-life [29] was 8.43 h and the Cmax [30] was 85.1 ng/mL. The Cmax [31] was 20.6 ng/mL, the Tmax [32] was 0.5 h and the Tmax [33] was 1.38 h.
For `Cc1cc(N2CCN([C@@H]3CN[C@H](C(=O)N4CCSC4)C3)CC2)n(-c2ccccc2F)n1`, the inhibition in vivo at 3 µmol/kg [1] was 34.7%, the inhibition in vivo at 3 µmol/kg [2] was 75.9% and the IC50 [3] was 0.53 nM.
`Cc1cc(N2CCN([C@@H]3CN[C@H](C(=O)N4CCSC4)C3)CC2)n(-c2ccccn2)n1` gave an inhibition in vivo at 3 µmol/kg [1] of 53.7% and an inhibition in vivo at 3 µmol/kg [2] of 83%.
In the case of `O=C([C@@H]1C[C@H](N2CCN(c3ccnc4ccccc34)CC2)CN1)N1CCSC1`, the inhibition in vivo at 3 µmol/kg [1] is reported as 12.9% and the inhibition in vivo at 3 µmol/kg [2] is reported as 29.7%.
`Cc1cc(N2CCN([C@@H]3CN[C@H](C(=O)N4CCSC4)C3)CC2)n(-c2ccccc2)n1` [TENELIGLIPTIN] gave an inhibition in vivo at 3 µmol/kg [1] of 78.3% and an inhibition in vivo at 3 µmol/kg [2] of 94.8%.
Work on `Cc1cc(N2CCN([C@@H]3CN[C@H](C(=O)N4CCSC4)C3)CC2)n(-c2ccncc2)n1` yielded an IC50 [3] of 4.7 nM.
In the case of `O=C([C@@H]1C[C@H](N2CCC(c3nnnn3-c3ccccc3)CC2)CN1)N1CCSC1`, the IC50 [3] is reported as 2.9 nM.
With `Cc1cc(N2CCN([C@@H]3CN[C@H](C(=O)N4CCSC4)C3)CC2)n(-c2ccc(Cl)cc2)n1` the IC50 [3] was 2.9 nM.
`Cc1cc(N2CCN([C@@H]3CN[C@H](C(=O)N4CCSC4)C3)CC2)n(-c2ccc(C#N)cn2)n1` showed an IC50 [3] of 14 nM.
`O=C([C@@H]1C[C@H](N2CCN(c3ccccn3)CC2)CN1)N1CCSC1` showed an inhibition in vivo at 3 µmol/kg [1] of 19.7% and an inhibition in vivo at 3 µmol/kg [2] of 62.7%.
With `Cc1cc(N2CCN([C@@H]3CN[C@H](C(=O)N4CCSC4)C3)CC2)n(-c2ccccc2)n1` the inhibition [34] was “Active”, the Activity [35] was “Active” and the Activity [36] was “Active”. The Activity [37] was “Active” and the inhibition [38] was “Dose-dependent effect”.
In the case of `Cc1cc(N2CCN([C@@H]3CN[C@H](C(=O)N4CCSC4)C3)CC2)n(-c2ccc(F)cc2)n1`, the IC50 [3] is reported as 2.3 nM.
`O=C([C@@H]1C[C@H](N2CCN(c3nc(-c4ccccc4)cs3)CC2)CN1)N1CCSC1` gave an IC50 [3] of 5.4 nM.
For `O=C([C@@H]1C[C@H](N2CCN(c3ccnn3-c3ccccc3)CC2)CN1)N1CCSC1`, the inhibition in vivo at 3 µmol/kg [1] was 50.8%, the inhibition in vivo at 3 µmol/kg [2] was 90.6% and the IC50 [3] was 0.69 nM.
`Cc1cc(N2CCN([C@@H]3CN[C@H](C(=O)N4CCSC4)C3)CC2)n(-c2cccnc2)n1` gave an inhibition in vivo at 3 µmol/kg [1] of 40.8%, an inhibition in vivo at 3 µmol/kg [2] of 66.9% and an IC50 [3] of 0.77 nM.
